Results: patent publication US10221177B2 (HYDRA BIOSCIENCES, INC., priority 2014, dated 2019)

Columns and labels:
human TRPA1 = human TRPA1 (Homo sapiens (Human), UniProt O75762); test: In vitro inhibition of human TRPA1, whole cell patch configuration; assay type: cell-based; conditions: current activation 10 μM AITC, tested concentrations 320 pM to 3.2 μM, read-out: hTRPA1 IC50
Procedure, shortened: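 Whole-cell patch clamp, bath 150 mM NaCl, 10 mM HEPES, 1 mM EGTA, 3 mM MgCl2, pH 7.4 (sometimes 2 mM CaCl2, 1 mM MgCl2). Currents recorded continuously at −60 mV or by 400 ms ramps from −40 mV holding every 4 s; inward/outward currents taken at −80/80 mV, with controlled-temperature focal perfusion.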

[1] = tested on: formalin-induced pain behaviors in the rat; test: Formalin-induced pain test (formalin model), duration of pain behaviors; assay type: in vivo
Procedure: Exemplary compounds of the invention were tested in the formalin-induced pain test reported by Dubuisson et al., Pain 1977 December; 4(2):161-74 (incorporated herein by reference in its entirety). Briefly, dilute formalin (50 μL of 3% formalin) was injected into the plantar surface of the hind paw of a rat. […] The individual responsible for counting the pain behaviors in a particular study was blinded to the treatment groups.
The initial phase (Phase I: 0-5 min) is thought to have a significant component that is dependent upon direct activation of afferent fibers by formalin and functional TRPA1 (McNamara et al., 2007).
Investigators studied oral administration of compounds of the invention at the doses presented in Table 3 on pain behaviors in the formalin model in the rat. Compounds were formulated as solutions in water with various solvents and excipients including dimethyl sulfoxide (DMSO), polyethylene glycol (15)-hydroxystearate (Solutol®, Sigma-Aldrich), caprylocaproyl macrogol-8 glyceride (Labrasol®, Sigma-Aldrich), polysorbate-80 (Tween®-80, Sigma-Aldrich), and polyoxyl 35 castor oil (Cremophor® EL, BASF Corp.); or suspensions in methylcellulose as indicated in Table 3. Animals were dosed orally with the vehicle, or compounds of the invention one hour prior to intraplantar formalin. […] A decrease over Vehicle indicates a positive result. P values, when indicated, indicate significance compared Vehicle.

[2] = 10 mg/kg PO one hour prior to formalin, solution in 4% DMSO, 5% Tween-80, 20% Cremophor EL, 71% water
[3] = 1 mg/kg PO one hour prior to formalin, solution in 4% DMSO, 5% Tween-80, 20% Cremophor EL, 71% water
[4] = 3 mg/kg PO one hour prior to formalin, solution in 4% DMSO, 5% Tween-80, 20% Cremophor EL, 71% water
[5] = 30 mg/kg PO one hour prior to formalin, solution in 4% DMSO, 5% Tween-80, 20% Cremophor EL, 71% water
[6] = 30 mg/kg PO one hour prior to formalin, solution in 8% DMSO and 92% Labrasol

human TRPA1, sequence (O75762 whole entry, the tested form may be a part): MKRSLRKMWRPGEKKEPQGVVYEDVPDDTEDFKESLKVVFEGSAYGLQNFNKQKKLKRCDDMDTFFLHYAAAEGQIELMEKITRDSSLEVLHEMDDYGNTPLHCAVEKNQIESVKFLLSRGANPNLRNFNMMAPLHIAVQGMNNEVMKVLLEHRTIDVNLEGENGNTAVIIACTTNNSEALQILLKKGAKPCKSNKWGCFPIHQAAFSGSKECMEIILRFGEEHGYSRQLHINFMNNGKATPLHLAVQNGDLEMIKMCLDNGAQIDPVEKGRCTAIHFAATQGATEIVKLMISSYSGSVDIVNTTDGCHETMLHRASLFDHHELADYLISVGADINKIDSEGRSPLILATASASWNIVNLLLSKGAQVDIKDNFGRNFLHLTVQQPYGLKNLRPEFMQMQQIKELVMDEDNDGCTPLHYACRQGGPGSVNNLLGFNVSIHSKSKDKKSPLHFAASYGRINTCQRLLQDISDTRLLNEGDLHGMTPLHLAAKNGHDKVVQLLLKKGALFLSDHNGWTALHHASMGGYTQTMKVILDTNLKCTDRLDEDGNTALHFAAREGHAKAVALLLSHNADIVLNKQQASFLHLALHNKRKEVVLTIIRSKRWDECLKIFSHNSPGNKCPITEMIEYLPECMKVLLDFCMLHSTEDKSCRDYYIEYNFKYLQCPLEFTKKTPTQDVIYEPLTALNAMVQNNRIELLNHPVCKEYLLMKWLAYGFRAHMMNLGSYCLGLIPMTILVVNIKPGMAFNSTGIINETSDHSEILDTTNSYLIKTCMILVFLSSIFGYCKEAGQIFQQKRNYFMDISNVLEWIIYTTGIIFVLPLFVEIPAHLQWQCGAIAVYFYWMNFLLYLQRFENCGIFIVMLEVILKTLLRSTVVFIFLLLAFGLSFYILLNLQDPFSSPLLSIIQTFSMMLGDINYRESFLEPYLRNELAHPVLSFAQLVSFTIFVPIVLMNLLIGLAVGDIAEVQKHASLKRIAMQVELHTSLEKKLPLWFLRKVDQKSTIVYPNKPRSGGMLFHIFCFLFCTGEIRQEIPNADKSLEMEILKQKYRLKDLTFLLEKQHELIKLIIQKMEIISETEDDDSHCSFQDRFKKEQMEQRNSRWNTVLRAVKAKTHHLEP

C[C@@H](C(=O)Nc1cncc(-c2cnc(N3CC4CC4C3)nc2)n1)n1cnc2c1c(=O)n(CC#N)c(=O)n2C (stereo partly shown) [Compound 144]
IC50 (human TRPA1): 6 nM
Duration (0-2 Minutes) Average [1, 2]: 64.6 s
Duration (0-5 Minutes) Average [1, 2]: 181.3 s

Cc1nc(Cn2c(=O)c3c(ncn3[C@@H](C)C(=O)Nc3ccnc(-c4cnc(C)c(C(F)(F)F)c4)n3)n(C)c2=O)no1 [Compound 172, (S)-2-(3-methyl-1-((5-methyl-1,2,4-oxadiazol-3-yl)methyl)-2,6-dioxo-2,3-dihydro-1H-purin-7(6H)-yl)-N-(2-(6-methyl-5-(trifluoromethyl)pyridin-3-yl)pyrimidin-4-yl)propanamide]
IC50 (human TRPA1): 2 nM
Duration (0-2 Minutes) Average [1, 3]: 88.6 s
Duration (0-5 Minutes) Average [1, 3]: 151.0 s
Duration (0-2 Minutes) Average [1, 4]: 91.1 s
Duration (0-5 Minutes) Average [1, 4]: 149.0 s
Duration (0-2 Minutes) Average [1, 2]: 83.1 s
Duration (0-5 Minutes) Average [1, 2]: 151.6 s

C[C@@H](C(=O)Nc1cccc(-c2cnc(N3CC4CC4C3)nc2)n1)n1cnc2c1c(=O)n(CC#N)c(=O)n2C (stereo partly drawn) [Compound 149, (2S)—N-(6-(2-(3-azabicyclo[3.1.0]hexan-3-yl)pyrimidin-5-yl)pyridin-2-yl)-2-(1-(cyanomethyl)-3-methyl-2,6-dioxo-2,3-dihydro-1H-purin-7(6H)-yl)propanamide]
IC50 (human TRPA1): 2 nM
Duration (0-2 Minutes) Average [1, 5]: 41.9 s
Duration (0-5 Minutes) Average [1, 5]: 153.0 s

C[C@@H](C(=O)Nc1ccnc(-c2cnc(N3CC4CC4C3)nc2)n1)n1cnc2c1c(=O)n(CC#N)c(=O)n2C (stereo partly drawn) [Compound 155, (2S)—N-(2′-(3-azabicyclo[3.1.0]hexan-3-yl)-2,5′-bipyrimidin-4-yl)-2-(1-(cyanomethyl)-3-methyl-2,6-dioxo-2,3-dihydro-1H-purin-7(6H)-yl)propanamide]
IC50 (human TRPA1): 5 nM
Duration (0-2 Minutes) Average [1, 2]: 59.4 s
Duration (0-5 Minutes) Average [1, 2]: 182.5 s

Cc1cc(Cn2c(=O)c3c(ncn3[C@@H](C)C(=O)Nc3cccc(-c4cnc(C(F)(F)F)nc4)n3)n(C)c2=O)no1 [Compound 15, (S)-2-(3-methyl-1-((5-methylisoxazol-3-yl)methyl)-2,6-dioxo-2,3-dihydro-1H-purin-7(6H)-yl)-N-(6-(2-(trifluoromethyl)pyrimidin-5-yl)pyridin-2-yl)propanamide]
Duration (0-2 Minutes) Average [1, 6]: 76.00 s
Duration (0-5 Minutes) Average [1, 6]: 190.20 s

CCC(=O)Cn1c(=O)c2c(ncn2[C@@H](C)C(=O)Nc2cccc(-c3cnc(N4CC5C(C4)C5(F)F)cn3)n2)n(C)c1=O (stereo partly drawn) [Compound 256, (2S)—N-(6-(5-(6,6-difluoro-3-azabicyclo[3.1.0]hexan-3-yl)pyrazin-2-yl)pyridin-2-yl)-2-(3-methyl-2,6-dioxo-1-(2-oxobutyl)-2,3-dihydro-1H-purin-7(6H)-yl)propanamide]
IC50 (human TRPA1): 5 nM

Cc1noc(Cn2c(=O)c3c(ncn3CC(=O)Nc3csc(-c4cnc(C)c(C(F)(F)F)c4)n3)n(C)c2=O)n1 [Compound 252, 2-(3-methyl-1-((3-methyl-1,2,4-oxadiazol-5-yl)methyl)-2,6-dioxo-2,3-dihydro-1H-purin-7(6H)-yl)-N-(2-(6-methyl-5-(trifluoromethyl)pyridin-3-yl)thiazol-4-yl)acetamide]
IC50 (human TRPA1): 1 nM

Cc1nc2c(c(=O)n(Cc3ccccn3)c(=O)n2C)n1CC(=O)Nc1cccc(-c2ccc(F)c(F)c2)n1 [Compound 175, N-(6-(3,4-difluorophenyl)pyridin-2-yl)-2-(3,8-dimethyl-2,6-dioxo-1-(pyridin-2-ylmethyl)-2,3-dihydro-1H-purin-7(6H)-yl)acetamide]
IC50 (human TRPA1): 54 nM

CCC(=O)Cn1c(=O)c2c(ncn2CC(=O)Nc2cccc(-c3cnc(C)c(C(F)(F)F)c3)n2)n(C)c1=O [Compound 235, 2-(3-methyl-2,6-dioxo-1-(2-oxobutyl)-2,3-dihydro-1H-purin-7(6H)-yl)-N-(6′-methyl-5′-(trifluoromethyl)-[2,3′-bipyridin]-6-yl)acetamide]
IC50 (human TRPA1): 2 nM

Cc1cc(Cn2c(=O)c3c(ncn3CC(=O)Nc3cccc(N4CCC(F)(F)CC4)n3)n(C)c2=O)no1 [Compound 196, N-(6-(4,4-difluoropiperidin-1-yl)pyridin-2-yl)-2-(3-methyl-1-((5-methylisoxazol-3-yl)methyl)-2,6-dioxo-2,3-dihydro-1H-purin-7(6H)-yl)acetamide]
IC50 (human TRPA1): 122 nM

(S)-2-(3-methyl-1-((3-methyl-1,2,4-oxadiazol-5-yl)methyl)-2,6-dioxo-2,3-dihydro-1H-purin-7(6H)-yl)-N-(5′-methyl-6′-(trifluoromethyl)-[2,3′-bipyridin]-6-yl)propanamide [Compound 134]
IC50 (human TRPA1): 3 nM

CCC(=O)Cn1c(=O)c2c(ncn2[C@@H](C)C(=O)Nc2cccc(-c3cnc(OC)c(C(F)(F)F)c3)n2)n(C)c1=O [Compound 124, (S)—N-(6′-methoxy-5′-(trifluoromethyl)-[2,3′-bipyridin]-6-yl)-2-(3-methyl-2,6-dioxo-1-(2-oxobutyl)-2,3-dihydro-1H-purin-7(6H)-yl)propanamide]
IC50 (human TRPA1): 1 nM

Cc1cc(Cn2c(=O)c3c(ncn3CC(=O)Nc3cccc(-c4ccc(C(F)(F)F)nc4)n3)n(C)c2=O)no1 [Compound 215, 2-(3-methyl-1-((5-methylisoxazol-3-yl)methyl)-2,6-dioxo-2,3-dihydro-1H-purin-7(6H)-yl)-N-(6′-(trifluoromethyl)-2,3′-bipyridin-6-yl)acetamide]
IC50 (human TRPA1): 25 nM

Cc1noc(Cn2c(=O)c3c(ncn3[C@@H](C)C(=O)Nc3csc(-c4cnc(C(F)(F)F)c(C)c4)n3)n(C)c2=O)n1 [Compound 107, (S)-2-(3-methyl-1-((3-methyl-1,2,4-oxadiazol-5-yl)methyl)-2,6-dioxo-2,3-dihydro-1H-purin-7(6H)-yl)-N-(2-(5-methyl-6-(trifluoromethyl)pyridin-3-yl)thiazol-4-yl)propanamide]
IC50 (human TRPA1): 1 nM

CC(=O)Cn1c(=O)c2c(ncn2CC(=O)Nc2cccc(-c3cnc(C)c(C(F)(F)F)c3)n2)n(C)c1=O [Compound 234, 2-(3-methyl-2,6-dioxo-1-(2-oxopropyl)2,3-dihydro-1H-purin-7(6H)-yl)-N-(6′-methyl-5′-(trifluoromethyl)-[2,3′-bipyridin]-6-yl)acetamide]
IC50 (human TRPA1): 4 nM

Cc1cc(Cn2c(=O)c3c(ncn3CC(=O)Nc3cccc(-c4cnc(C(F)(F)F)c(C)c4)n3)n(C)c2=O)no1 [Compound 221, 2-(3-methyl-1-((5-methylisoxazol-3-yl)methyl)-2,6-dioxo-2,3-dihydro-1H-purin-7(6H)-yl)-N-(5′-methyl-6′-(trifluoromethyl)-[2,3′-bipyridin]-6-yl)acetamide]
IC50 (human TRPA1): 5 nM

CCC(=O)Cn1c(=O)c2c(ncn2[C@@H](C)C(=O)Nc2csc(-c3cnc(N(CC)CC)nc3)n2)n(C)c1=O [Compound 38, (S)—N-(2-(2-(diethylamino)pyrimidin-5-yl)thiazol-4-yl)-2-(3-methyl-2,6-dioxo-1-(2-oxobutyl)-2,3-dihydro-1H-purin-7(6H)-yl)propanamide]
IC50 (human TRPA1): 3 nM

Cc1nc(Cn2c(=O)c3c(ncn3CC(=O)Nc3cccc(-c4cnc(C(F)(F)F)c(C)c4)n3)n(C)c2=O)no1 [Compound 223, 2-(3-methyl-1-((5-methyl-1,2,4-oxadiazol-3-yl)methyl)-2,6-dioxo-2,3-dihydro-1H-purin-7(6H)-yl)-N-(5′-methyl-6′-(trifluoromethyl)-[2,3′-bipyridin]-6-yl)acetamide]
IC50 (human TRPA1): 25 nM
